Measured values published in PMC4947679, “Quantitative In Vitro and In Vivo Evaluation of Intestinal and Blood-Brain Barrier Transport Kinetics of the Plant N-Alkylamide Pellitorine” (BioMed Research International, 2016).

Legend:
[1] = In vitro metabolic stability; type: in vitro ADME; settings: pH 7.4; one hour, 37°C; mouse serum, brain homogenate and liver homogenate
Experimental: The in vitro metabolic stability of pellitorine was evaluated in mouse brain and liver homogenates and mouse serum according to previously described protocols. Using the Pierce Modified Lowry Protein Assay method (Thermo Scientific), the protein content of each tissue homogenate was determined to prepare a stock solution containing a 0.6 mg/mL protein concentration in Krebs-Henseleit buffer (pH 7.4). […] After 0, 5, 7.5, 15, 60, and 120 min, aliquots of 100 μL were taken and transferred into 0.5 mL tubes (LoBind Eppendorf) containing 100 μL of 1% (V/V) TFA in water. Next, the samples were heated at 95°C for 5 min and subsequently cooled for 30 min in ice. Thereafter, the samples were centrifuged (20 000 ×g for 30 min at 5°C) and 25 μL of the clear supernatant was injected and analysed using a HPLC-UV/MS method of 46 min which was previously described. The HPLC-MS analysis was done on a HPLC system which consisted of a Spectra System SN4000 interface, a Spectra System SCM1000 degasser, a Spectra System P1000XR pump, a Spectra System AS3000 autosampler, and a Finnigan LCQ Classic ion trap mass spectrometer in positive ion mode (all from Thermo, San José, CA, USA) equipped with Waters 2487 Dual Absorbance detector and Xcalibur 2.0 software (Thermo) for data acquisition. Control solutions were also prepared but without pellitorine. […]

Caco-2 cell monolayer = test: Caco-2 cell permeability assay; type: in vitro ADME, human
Experimental: (§1) The Caco-2 cell line originated from a human colorectal carcinoma and was maintained in Dulbecco's modified Eagle's medium (DMEM) (95% humidity, 37°C, 5% CO2), supplemented with 10% (V/V) fetal bovine serum, 100 U/mL penicillin and 100 μg/mL streptomycin, 2 mM L-glutamine, and 1% nonessential amino acids (all from Invitrogen/GIBCO, Ghent, Belgium).
(§2) The Caco-2 cell intestinal model was used to investigate the gut mucosa permeation of pellitorine. On each Transwell (Corning Costar, New York, USA) membrane insert filter (0.4 μm pore size, 12 mm filter diameter), the cells were seeded at a density of 2.6 · 10^5 cells/cm^2 cells and cultivated in the described supplemented DMEM. Every second day, the medium was changed. During a period of 21–29 days, the cells were grown and differentiated until monolayers were formed. The integrity of the monolayers was checked via the measurement of transepithelial electrical resistance (TEER) of the monolayers with a Millicell-ERS system (Millipore Corp., Bedford, MA, USA) before and after the transport experiments. The experiments were performed in duplicate for each dose solution. Transport experiments were carried out according to Hubatsch et al. in two directions: from the apical-to-basolateral (ab) direction and from the basolateral-to-apical (ba) direction in Hanks' Balanced Salt solution. Two dose solutions of pellitorine (in Anacyclus pyrethrum extract) of 1 μg/mL in 0.5% EtOH (further indicated as DS1) and of 56 μg/mL in 0.5% of a mixture of vitamin E-TPGS (33.3%), EtOH (11.1%), PEG 400 (33.3%), and PG (22.2%) (further indicated as DS2) dissolved in HBSS were tested.
(§3) Final apical volumes of 0.4 mL and basolateral volumes of 1.2 mL were used for 12 mm filter supports during the transport experiment. After 15, 30, 60, 90, and 120 min, samples were taken from the receiver compartment (basolateral to apical transport: 100 μL, apical-to-basolateral transport: 300 μL) and immediately replaced by fresh HBSS. […] Pellitorine was quantified using a ultraperformance liquid chromatography-tandem mass spectrometry (UPLC-MS^2) method as described below.
(§4) The apparent permeability coefficient (P app in cm/s) of pellitorine in DS2 was calculated using a sink condition equation, while P app of pellitorine in DS1 was calculated using a nonsink equation. From Fick's first law, J = −D × [dC(x)]/dx (J is the flux or transfer rate along the donor-to-receptor side, D is the diffusion coefficient, x is the distance from the donor compartment, and C(x) is the concentration in the barrier at the coordinate x in the barrier), the following differential equation is derived: dM r(t)/dt = P app × A × [C d(t) − C r(t)], in which P app is the apparent permeability coefficient (a product of distribution coefficient with diffusion coefficient divided by the barrier thickness), M r is the amount of substance in the receiver chamber, A is the cross-sectional area of the barrier, C d is the donor concentration, and C r is the receiver concentration. This differential equation can be solved to calculate P app using different initial conditions depending on sink or nonsink conditions. In case of sink conditions, the following equation was obtained from the amount of compound transported per time dM r(t)/dt with the receiver concentration set to zero [18, 20]:(1) Mrt/Cd,0=Papp×A×t+c, where P app is the apparent permeability coefficient (cm/s), A is the surface area of the filter (1.12 cm^2), C d,0 is the initial concentration in the donor chamber (μg/mL), t is the time (s), and c is a constant term which vanishes, since M r is initially zero at t = 0.
(§5) The donor concentration at each time point was calculated by taking into account the amount of compound which already permeated through the cell monolayer during that time interval. In this way, the reduction in donor concentration after every sampling was also taken into account.

[2] = Caco-2 cell permeability assay; type: in vitro ADME, human; settings: human, Caco-2
Experimental: as §1, §2, §3, §4, §5

[3] = apical-to-basolateral, DS1, after 120 min
[4] = apical-to-basolateral, DS2, after 120 min
[5] = basolateral-to-apical, DS1, after 120 min
[6] = basolateral-to-apical, DS2, after 120 min

SMILES: CCCCC/C=C/C=C/C(=O)NCC(C)C [pellitorine, deca-2E,4E-dienoic acid isobutylamide]
- recovery at 1 h, 0.025 mg/mL [1]: 91 to 105%
- uptake ratio (P app,ab/P app,ba) (Caco-2 cell monolayer; DS1): 0.84
- uptake ratio (P app,ab/P app,ba) (Caco-2 cell monolayer; DS2): 1.96
- amount of pellitorine permeated (Caco-2 cell monolayer; [3]): 0.31 µg
- percentage of applied pellitorine permeated (Caco-2 cell monolayer; [3]): 56.7%
- amount of pellitorine permeated (Caco-2 cell monolayer; [4]): 2.24 µg
- percentage of applied pellitorine permeated (Caco-2 cell monolayer; [4]): 9.98%
- amount of pellitorine permeated (Caco-2 cell monolayer; [5]): 0.39 µg
- percentage of applied pellitorine permeated (Caco-2 cell monolayer; [5]): 23.7%
- amount of pellitorine permeated (Caco-2 cell monolayer; [6]): 1.24 µg
- percentage of applied pellitorine permeated (Caco-2 cell monolayer; [6]): 1.84%
- ratio of P app values between the apical-to-basolateral and the basolateral-to-apical direction or vice versa (Caco-2 cell monolayer; both dose solutions): ≤ 2
- Papp A→B at 120 min, 1 μg/mL ([2]; DS1: 1 μg/mL pellitorine (in Anacyclus pyrethrum extract) in 0.5% EtOH in HBSS, nonsink equation, mean ± SD, n = 2, read-out: apparent permeability coefficient (P app), apical-to-basolateral transport): 48.08 ± 0.08 ×10⁻⁶ cm/s
- Papp B→A at 120 min, 1 μg/mL ([2]; DS1, mean ± SD, n = 2, read-out: apparent permeability coefficient (P app), basolateral-to-apical transport): 57.5 ± 6.2 ×10⁻⁶ cm/s
- Papp A→B at 120 min, 56 μg/mL ([2]; DS2: 56 μg/mL pellitorine (in Anacyclus pyrethrum extract) in 0.5% vitamin E-TPGS/EtOH/PEG 400/PG mixture in HBSS, sink equation, mean ± SD, n = 2, read-out: apparent permeability coefficient (P app), apical-to-basolateral transport): 5.5 ± 0.06 ×10⁻⁶ cm/s
- Papp B→A at 120 min, 56 μg/mL ([2]; DS2, mean ± SD, n = 2, read-out: apparent permeability coefficient (P app), basolateral-to-apical transport): 2.8 ± 0.09 ×10⁻⁶ cm/s
- recovery at 120 min ([2]; after 120 min, read-out: mass balance, total recovery): 104 to 132%
